Reference: patent publication US7265087B1, “Exendin improves β-cell response in subjects with impaired glucose tolerance” (priority 1998, dated 2007)
Several values for one entry are separate records, joined by “and”; a condition that tells them apart may be missing. Equal values may be shown once. No end group written: not given here.

What was measured:
subjects with NIDDM = experiment: 12 hour oscillatory glucose infusion with constant GLP-1 infusion, subjects with NIDDM; format: in vivo, human; parameters: Mean glucose 12 hour GLP-1: unit not given beside the values
Description: (§1) The studies described herein were performed in 10 subjects who were divided into two groups on the basis of their plasma glucose response to an oral glucose tolerance test using the criteria of the World Health Organization to define the degree of glucose tolerance. Five subjects had IGT, and five subjects had NIDDM. The gender, age, body mass index (BMI), basal levels of fasting glucose, 2 hour glucose, fasting insulin, and HBA1c for each subject are presented in Table 2. Diabetic subjects were older than those with IGT, but the groups were matched for by BMI. Mean fasting glucose levels and glycosylated hemoglobin concentrations were lower in the IGT group compared to subjects with NIDDM.
(§2) The coefficient of variation of this method was <2%. […] The average intraassay coefficient of variation was 5%. […] Diabetes 27, Suppl 1: 170-177, 1978.
(§3) All results are expressed as mean±SEM. Data analysis was performed using the Statistical Analysis System (SAS Version 6 Edition, for Personal Computers, SAS Institute, Inc., Cary, N.C.). The significance of differences within the individual induced by GLP-1 infusion was determined using paired t tests. Differences were considered to be significant if P<0.05.
(§4) Standard kinetic parameters for C-peptide clearance adjusted for age, sex and body surface area were utilized, Van Cauter E, Mestrez, F, Sturis J, Polonsky K S. Estimation of insulin secretion rates from C-peptide levels: comparison of individual and standard kinetic parameters for C-peptide clearance. Diabetes 41:368-377, 1992. These parameters were used to derive, in each 15 minute interval between blood sampling, the ISR from the plasma C-peptide concentrations by deconvolution as previously described.
The diabetic subjects were treated with diet alone with the exception of one subject D07, who was previously treated with an oral hypoglycemic agent that was discontinued 4 weeks prior to the study. None of the diabetic patients had ever received insulin. All subjects were placed on a weight maintenance diet containing at least 200 g of carbohydrate per day for two weeks before the study.
(§5) Each subject was studied on three separate occasions. All studies were performed after a 12-hour overnight fast beginning at 0700 unless otherwise stated with subjects in the recumbent position. An intravenous catheter was placed in each forearm, one for blood sampling and one for administration of glucose and GLP-1 as needed. In all experiments, the arm containing the sampling catheter was maintained in a heating blanket to ensure arterialization of the venous sample. In the following examples, the GLP-1 was administered to the subjects in the GLP-1 (7-36) amide form.
(§6) In order to determine whether the β-cells were able to detect and respond to oscillations of glucose, glucose was infused in an oscillatory pattern with a small volume of saline for 12 hours.
(§7) To determine whether insulin secretion was entrained by glucose in individual subjects, the temporal profiles of insulin secretion were analyzed by spectral analysis. Spectral power analysis was used to evaluate the presence of tight coupling between oscillations in glucose and oscillations in ISR. This method evaluated the regularity of insulin secretory oscillations at a predetermined frequency. Spectral peaks correspond to the dominant periodicity and height of the peaks correspond to spectral power. Each spectrum was normalized assuming the total variance of each series to be 100% and was expressed as the normalized spectral power.

[1] = system: subjects with impaired glucose tolerance (IGT); experiment: 12 hour oscillatory glucose infusion with constant GLP-1 infusion, subjects with IGT; format: in vivo, human; parameters: Mean glucose 12 hour GLP-1 / Mean ISR 12 hour GLP-1: unit not given beside the values
Description: as §1, §2, §3, §4, §5, §6, §7

pancreas = details: background statement; cited from earlier work

CC[C@H](C)[C@H](NC(=O)[C@H](Cc1ccccc1)NC(=O)[C@H](CCC(=O)O)NC(=O)[C@H](CCCCN)NC(=O)[C@H](C)NC(=O)[C@H](C)NC(=O)[C@H](CCC(N)=O)NC(=O)CNC(=O)[C@H](CCC(=O)O)NC(=O)[C@H](CC(C)C)NC(=O)[C@H](Cc1ccc(O)cc1)NC(=O)[C@H](CO)NC(=O)[C@H](CO)NC(=O)[C@@H](NC(=O)[C@H](CC(=O)O)NC(=O)[C@H](CO)NC(=O)[C@@H](NC(=O)[C@H](Cc1ccccc1)NC(=O)[C@@H](NC(=O)CNC(=O)[C@H](CCC(=O)O)NC(=O)[C@H](C)NC(=O)[C@@H](N)Cc1c[nH]cn1)[C@@H](C)O)[C@@H](C)O)C(C)C)C(=O)N[C@@H](C)C(=O)N[C@@H](Cc1c[nH]c2ccccc12)C(=O)N[C@@H](CC(C)C)C(=O)N[C@H](C(=O)N[C@@H](CCCCN)C(=O)NCC(=O)N[C@@H](CCCNC(=N)N)C(N)=O)C(C)C [GLP-1, GLP-1 (7-36) amide]
Mean ISR 12 hour GLP-1 (subjects with NIDDM; NIDDM group, Mean ± SEM, n=5, GLP-1 0.4 pmol/kg/min for 12 hours): 508 ± 53.4
Mean glucose 12 hour GLP-1 (subjects with NIDDM; NIDDM group, Mean ± SEM, n=5, GLP-1 0.4 pmol/kg/min for 12 hours, P<0.05 vs saline): 9.40 ± 0.9
mean ISRs during GLP-1 infusion compared to saline infusion (subjects with NIDDM; NIDDM subjects): not significantly different
mean normalized spectral power for glucose during GLP-1 infusion (subjects with NIDDM; NIDDM subjects, P=0.18 vs saline, mean±SEM): 9.8±0.7
Mean glucagon levels during GLP-1 infusion (subjects with NIDDM; NIDDM subjects, P=0.4 vs saline, mean±SEM): 46.4 ± 3.2 pg/mL
increase of mean insulin levels during GLP-1 infusion compared to saline (subjects with NIDDM; NIDDM subjects, P=0.56, mean±SEM): 7 ± 12 pmol/L
Spectral power for ISR during GLP-1 infusion (subjects with NIDDM; NIDDM subjects, normalized, P=0.6 vs saline, mean±SEM): 1.5±0.8
average drop of mean glucose levels during GLP-1 infusion compared to saline (subjects with NIDDM; diabetics (NIDDM), P<0.0005, mean±SEM): 5.2 ± 0.5 mM
Mean ISR 12 hour GLP-1 (subjects with NIDDM; individual NIDDM subjects D06-D10, GLP-1 0.4 pmol/kg/min for 12 hours with oscillatory glucose infusion): 477.7 and 715.4 and 487.7 and 412.5 and 448.9
Mean glucose 12 hour GLP-1 (subjects with NIDDM; individual NIDDM subjects D06-D10, GLP-1 0.4 pmol/kg/min i.v. for 12 hours with oscillatory glucose infusion): 11.53 and 10.51 and 6.24 and 8.84 and 9.90
Spectral power during GLP-1 infusion, individual subject (subjects with NIDDM; one subject with NIDDM (D07, FIGS. 6C and 6D), 0.28 during saline): 1.51 and 1.5
pattern of insulin secretory responses to glucose during GLP-1 infusion (subjects with NIDDM; two subjects with NIDDM, D07 and D09 (FIGS. 4B and 4D)): not improved
Mean ISR 12 hour GLP-1 ([1]; IGT group, Mean ± SEM, n=5, GLP-1 0.4 pmol/kg/min for 12 hours): 654.2 ± 152.1
Mean glucose 12 hour GLP-1 ([1]; IGT group, Mean ± SEM, n=5, GLP-1 0.4 pmol/kg/min for 12 hours, P<0.05 vs saline): 6.35 ± 0.08
mean ISRs during GLP-1 infusion compared to saline infusion ([1]; IGT subjects): not significantly different
average drop of mean glucose levels during GLP-1 infusion compared to saline ([1]; IGT subjects, P<0.02, mean±SEM): 2.4 ± 0.6 mM
mean normalized spectral power for glucose during GLP-1 infusion ([1]; IGT subjects, P=0.19 vs saline, mean±SEM): 13.2±1.6
increase of mean insulin levels during GLP-1 infusion compared to saline ([1]; IGT subjects, P=0.32, mean±SEM): 102 ± 90 pmol/L
Mean glucagon levels during GLP-1 infusion ([1]; IGT subjects, P=0.94 vs saline, mean±SEM): 39.3 ± 5.4 pg/mL
Spectral power for ISR during GLP-1 infusion ([1]; IGT subjects, normalized, P<0.006 vs saline, mean±SEM): 8.9±1.7
periodicity of the dominant spectral peak in ISR during GLP-1 infusion ([1]; individual IGT subject, period of exogenous glucose infusion 144 minutes): 144 min
Mean ISR 12 hour GLP-1 ([1]; individual IGT subjects D01-D05, GLP-1 0.4 pmol/kg/min for 12 hours with oscillatory glucose infusion): 465.9 and 1042.7 and 365.9 and 1005.8 and 390.9
Mean glucose 12 hour GLP-1 ([1]; individual IGT subjects D01-D05, GLP-1 0.4 pmol/kg/min i.v. for 12 hours with oscillatory glucose infusion): 6.06 and 6.46 and 6.36 and 6.37 and 6.48
Spectral power during GLP-1 infusion, individual subject ([1]; one subject with IGT (D02, FIGS. 6A and 6B), 0.6 during saline): 8.9
pattern of insulin secretory responses to glucose during GLP-1 infusion ([1]; representative subjects with IGT, D01 and D02 (FIGS. 3B and 3D)): improved

SEQ ID NO:5 (EGTFTSDVSSYLEGQAAKEFIAWLVKGRG; mammalian)
production or release of insulin from the pancreas (pancreas): do not stimulate the production or release of insulin from the pancreas

SEQ ID NO:6 (EGTFTSDVSSYLEGQAAKEFIAWLVKGR-NH2)
production or release of insulin from the pancreas (pancreas): do not stimulate the production or release of insulin from the pancreas
